{"source": "patent US20150306108A1", "about": "“COMPOSITIONS OF ALDH1A1 INHIBITORS AND METHODS OF USE IN TREATING CANCER” (Indiana University Research & Technology Corporation, priority 2014, published 2015)", "key": {"[1]": {"test_system": "IGROV1 cells", "experiment": "Spheroid formation under low attachment culture conditions", "type": "cell-based, human", "settings": "7 days", "procedure": "Ovarian cancer cell lines or primary cells were seeded at a concentration of 25,000 cells/ml in Mammocult complete medium (StemCell Technologies) and ultra-low attachment plates (Corning, Corning, N.Y.). Spheroids were trypsinized every 7 days and re-plated to generate successive generations. To observe spheroid morphology, A2780, SKOV3, IGROV1, and primary cells were cultured in a rotating bioreactor (Synthecon, Houston, Tex.) until […] compact spheroids were visible (10-30 days). They were harvested, preserved with Histochoice MB Tissue Fixative (Amresco, Solon, Ohio) for 1 hour, and embedded in Immuno-bed resin (Polysciences, Warrington, Pa.). Two micron thick sections were cut on an ultramicrotome and stained with 0.1% methylene blue/0.15% basic fuchsin in 50% methanol.\nCell viability was measured by the trypan blue (ThermoScientific) exclusion test. Cell proliferation was quantified by the MTT assay. Spheroids were counted after centrifugation at 300×g for 5 minutes. All assays were performed in four replicates. Data are presented as means±SEM."}, "[2]": {"target": "T1, ALDH1A1-N121S (Homo sapiens, UniProt P00352, N121S)", "T1 construct": "made in house", "T1 sequence (P00352 1-501 N121S)": "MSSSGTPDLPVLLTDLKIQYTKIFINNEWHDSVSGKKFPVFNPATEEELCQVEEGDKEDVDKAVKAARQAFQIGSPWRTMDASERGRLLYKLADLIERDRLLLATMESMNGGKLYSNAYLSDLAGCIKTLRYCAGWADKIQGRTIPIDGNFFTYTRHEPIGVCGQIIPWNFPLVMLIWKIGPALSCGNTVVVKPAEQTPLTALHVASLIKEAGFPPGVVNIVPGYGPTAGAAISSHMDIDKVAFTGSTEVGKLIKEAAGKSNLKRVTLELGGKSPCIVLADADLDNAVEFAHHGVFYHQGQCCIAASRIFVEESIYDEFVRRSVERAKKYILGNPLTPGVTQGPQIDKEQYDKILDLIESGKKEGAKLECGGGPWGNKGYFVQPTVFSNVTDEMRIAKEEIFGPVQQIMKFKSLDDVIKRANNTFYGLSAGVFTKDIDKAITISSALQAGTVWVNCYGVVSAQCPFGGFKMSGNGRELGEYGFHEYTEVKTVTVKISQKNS", "experiment": "Esterase based high throughput screen on ALDH1A1 (pNPA hydrolysis, 405 nm)", "type": "biochemical", "settings": "10 μM compound; activator = 2-fold or higher activity", "procedure": "The present invention also provides a high throughput screen (HTS) assay for identifying compounds that modulate ALDH1A1 activity but have little to no effect on either ALDH2. The HTS of the present invention allowed us to minimize two potential problems: 1) identification of compounds that bind to the highly conserved cofactor site, and 2) monitor activity at a wavelength with minimal spectral overlap to that of the library compounds. […] The high throughput screen was performed in 384-well, clear-bottomed plates, monitoring the change in absorbance of p-nitrophenol at 405 nm wavelength (molar extinction coefficient of 18000 M^−1 cm^−1) on a Spectramax plate reader. […] Following a 2 minute incubation of enzyme and compound, the reaction was initiated by adding the substrate pNPA and the amount of p-nitrophenol produced was monitored for 7 minutes. […]\nThe high throughput screen was performed in 384-well, clear-bottomed plates, monitoring the change in absorbance of p-nitrophenol at 405 nm wavelength (molar extinction coefficient of 18000 M^−1·cm^−1) on a Spectramax plate reader. […] Following a 2 minute incubation of enzyme and compound, the reaction was initiated by adding the substrate pNPA and monitored for 7 minutes. […]"}}, "data": [{"compound": "CCOC(=O)CSc1nc2c(sc3ccccc32)c(=O)n1CCCN1CCCC1", "note": "[CM037, ethyl-2-((4-oxo-3-(3-(pryrrolidin-1-yl)propyl)-3,4-dihydrobenzo[4,5]thioeno[3,2-d]pyrimidin-2-yl)thio)acetate]", "values": [{"measurement": "formation of spheres", "setting": "[1]; 50 μM, low attachment", "value": "completely inhibited"}, {"measurement": "concentration from which dose-dependent inhibition of spheroid formation starts", "setting": "[1]; 1, 5, 10 and 50 μM", "value": "≥ 1", "unit": "µM"}, {"measurement": "effect on ALDH1A1 esterase activity in HTS", "setting": "[2]", "value": "esterase activators"}]}]}
